Measured values taken from PubChem BioAssay AID1963965 (Molecular Pharmacology Branch, DTP, NCI, 2024).
“And” between values parts separate entries of the source, which are not always exact repeats. Identical values can stand only once.

Tested on: 996289-038-R-J1-PDC spheroid viability
Assay: Anticancer human tumor 996289-038-R-J1-PDC patient-derived colon adenocarcinoma cell line growth inhibition [PI3K]
Details: spheroids with HUVEC and MSC; for viability, T/C: stronger effect = lower value
Text: Combinatorial screen of targeted agents with the PI3K inhibitors inavolisib, alpelisib, duvelisib, and copanlisib in multi-cell type tumor spheroids
A high-throughput screen of multi-cell type tumor spheroids was designed to identify active combinations of targeted small molecules and PI3K pathway inhibitors. Complex spheroids include a stromal component modeled by human endothelial cells (HUVEC) and fibroblasts modeled by human mesenchymal stem cells (MSCs). The concentration ranges selected for each drug and investigational agent were based upon clinically achievable concentrations if the clinical Cmax of the agent was known.
Compounds. The drugs and investigational agents: inavolisib (NSC800729), alpelisib (NSC765974), duvelisib (NSC772469), copanlisib (NSC816437), ipatasertib (NSC767898), afuresertib (NSC778305), talazoparib (NSC767125), sapanisertib (NSC764658), selumetinib (NSC741078), tovorafenib (DAY101, NSC766906), vemurafenib (NSC761431), ravoxertinib (NSC781343), sotorasib (NSC818433), MRTX1133 (NSC 836407), abemaciclib (NSC 768073), palbociclib (NSC758247), venetoclax (NSC 766270), SY5609 (NSC837396), enzalutamide (NSC755605), and darolutamide (NSC825331), were obtained from the National Cancer Institute (NCI) Developmental Therapeutics Program Chemical Repository. The FDA-approved anticancer drug set is available from the NCI Developmental Therapeutics Program. […] The stock solutions were prepared in dimethyl sulfoxide (DMSO, Sigma-Aldrich, St. Louis, MO, cat. D2650) at 800-fold the tested concentration and stored at -70 degrees C prior to their use. All drugs and investigational agents were tested over a range starting from a high concentration at or near the clinical Cmax and decreasing in half-log increments. If the clinical Cmax for an agent had not been determined, the highest concentration tested was 10 microM.
Cell Culture. All cells were maintained in an incubator at 37 degrees C and 5% CO2 with 95% humidity. The PDC lines were cultured according to standard operating procedures established by the NCI PDMR (https://pdmr.cancer.gov/sops/default.htm). All PDCs were thawed and cultured in Matrigel-coated flasks prepared with a working solution of 1X Ham's F-12 nutrient mix, without supplementation (Invitrogen, Waltham, MA, cat. 11765054), 100 U/mL penicillin-streptomycin (Invitrogen, cat. 15140122), and 2.5% Matrigel (Corning Inc., Corning, NY, cat. 354248) for the first three passages. The 354836-022-R-J1-PDC, 475296-252-R-J1-PDC, and 997726-040-R-J2-PDC lines were cultured in 6A media, which includes advanced DMEM/F-12 (Thermo Fisher Scientific, cat. 12634028), 10 mM HEPES (Thermo Fisher Scientific, cat. 15630080), 1X GlutaMAX supplement (Thermo Fisher Scientific, cat. 35050061), 0.1 mg/mL primocin (InvivoGen, San Diego, CA, cat. ant-pm-2), 10% defined fetal bovine serum, heat inactivated (HyClone Laboratories Inc., Logan, UT, cat. SH30070.03HI), 50% L-WRN conditioned media (ATCC, cat. CRL-3276), 1.25 mM N-Acetyl-L-cysteine (Sigma-Aldrich, cat. A9165), 10 mM nicotinamide (Sigma-Aldrich, cat. N0636), 1X B-27 supplement (Thermo Fisher Scientific, cat. 17504044), 1X N-2 supplement (Thermo Fisher Scientific, cat. 17502048), and 10 microM Y-27632 dihydrochloride (Tocris Bioscience, Bristol, United Kingdom, cat. 1254). The 624824-186-R-J2-PDC line was cultured in 6C/Colon 1B media, which includes all 6A media components plus 50 ng/mL human EGF recombinant protein (Thermo Fisher Scientific, cat. PHG0311). […]
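Note: spheroids exposed to compounds for seven days before viability read.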
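Throughout, for viability, T/C: luminescence used as a proxy for viable cell amount; percent viability relative to DMSO vehicle control as 100%.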

For `C#Cc1c(F)ccc2cc(O)cc(-c3ncc4c(N5CC6CCC(C5)N6)nc(OCC56CCCN5CC(F)C6)nc4c3F)c12` (stereo unspecified), the viability, T/C (compound 0.0316 µM) was 90.4% [middle of 4 runs], the viability, T/C (compound 0.1 µM) was 83.8% [middle of 4 runs] and the viability, T/C (compound 0.316 µM) was 70.2% [middle of 4 runs]. The viability, T/C (compound 1 µM) was 52.4% [middle of 4 runs], the viability, T/C (compound 3.16 µM) was 44.8% [middle of 4 runs] and the viability, T/C (compound 10 µM) was 37.7% [middle of 4 runs]. For the same compound, the IC50 (curve of compound) was 1.79 µM [middle of 4 runs].
With `CC1(C)CCC(CN2CCN(c3ccc(C(=O)NS(=O)(=O)c4ccc(NCC5CCOCC5)c([N+](=O)[O-])c4)c(Oc4cnc5[nH]ccc5c4)c3)CC2)=C(c2ccc(Cl)cc2)C1` the viability, T/C (compound 0.1 µM) was 103% [middle of 4 runs], the viability, T/C (compound 0.316 µM) was 101% [middle of 4 runs] and the viability, T/C (compound 1 µM) was 111% [middle of 4 runs]. The viability, T/C (compound 3.16 µM) was 112% [middle of 4 runs], the viability, T/C (compound 10 µM) was 59.5% [middle of 4 runs] and the IC50 (curve of compound) was > 10000 nM and 8800 nM and 8700 nM.
`CC1(C)CCC(Nc2ncc(C(F)(F)F)c(-c3c[nH]c4c(P(C)(C)=O)c(C#N)ccc34)n2)CN1` (stereo unspecified) was tested, and the viability, T/C (compound 0.1 µM) was 86.5% [middle of 4 runs], the viability, T/C (compound 0.316 µM) was 86% [middle of 4 runs] and the viability, T/C (compound 1 µM) was 88.9% [middle of 4 runs]. The viability, T/C (compound 3.16 µM) was 91.5% [middle of 4 runs], the viability, T/C (compound 10 µM) was 26.9% [middle of 4 runs] and the IC50 (curve of compound) was 6.64 µM [middle of 4 runs].
In the case of `Cn1cnc2c(F)c(Nc3ccc(Br)cc3Cl)c(C(=O)NOCCO)cc21` + CC(Nc1ccc2c(c1)OCCn1cc(N3C(=O)OCC3C(F)F)nc1-2)C(N)=O, the IC50 (curve of first compound, second compound 0.00316 µM) is reported as 285 nM, the IC50 (curve of first compound, second compound 0.01 µM) is reported as 339 nM and the IC50 (curve of first compound, second compound 0.0316 µM) is reported as 206 nM. It also gave an IC50 (curve of first compound, second compound 0.1 µM) of 91.1 nM, an IC50 (curve of first compound, second compound 0.316 µM) of 38.9 nM and an IC50 (curve of first compound, second compound 1 µM) of 25.2 nM. The viability, T/C (second compound 0.00316 µM, first compound 0.00949 µM) was 100%, the viability, T/C (second compound 0.00316 µM, first compound 0.03 µM) was 84.9% and the viability, T/C (second compound 0.00316 µM, first compound 0.0949 µM) was 64%. For the same compound, the viability, T/C (second compound 0.00316 µM, first compound 0.3 µM) was 51%, the viability, T/C (second compound 0.00316 µM, first compound 0.949 µM) was 35.1% and the viability, T/C (second compound 0.00316 µM, first compound 3 µM) was 26.2%. The viability, T/C (second compound 0.01 µM, first compound 0.00949 µM) was 95.9%, the viability, T/C (second compound 0.01 µM, first compound 0.03 µM) was 74.2% and the viability, T/C (second compound 0.01 µM, first compound 0.0949 µM) was 71.6%. It also gave a viability, T/C (second compound 0.01 µM, first compound 0.3 µM) of 49.9%, a viability, T/C (second compound 0.01 µM, first compound 0.949 µM) of 36.3% and a viability, T/C (second compound 0.01 µM, first compound 3 µM) of 24.7%. It also gave a viability, T/C (second compound 0.0316 µM, first compound 0.00949 µM) of 95.3%, a viability, T/C (second compound 0.0316 µM, first compound 0.03 µM) of 79.7% and a viability, T/C (second compound 0.0316 µM, first compound 0.0949 µM) of 58.6%. The viability, T/C (second compound 0.0316 µM, first compound 0.3 µM) was 44.1%, the viability, T/C (second compound 0.0316 µM, first compound 0.949 µM) was 35.6% and the viability, T/C (second compound 0.0316 µM, first compound 3 µM) was 23.7%. It also gave a viability, T/C (second compound 0.1 µM, first compound 0.00949 µM) of 84.7%, a viability, T/C (second compound 0.1 µM, first compound 0.03 µM) of 69.3% and a viability, T/C (second compound 0.1 µM, first compound 0.0949 µM) of 47.3%. It also gave a viability, T/C (second compound 0.1 µM, first compound 0.3 µM) of 35%, a viability, T/C (second compound 0.1 µM, first compound 0.949 µM) of 26.7% and a viability, T/C (second compound 0.1 µM, first compound 3 µM) of 18.5%. For the same compound, the viability, T/C (second compound 0.316 µM, first compound 0.00949 µM) was 60.6%, the viability, T/C (second compound 0.316 µM, first compound 0.03 µM) was 53.4% and the viability, T/C (second compound 0.316 µM, first compound 0.0949 µM) was 41.8%. The viability, T/C (second compound 0.316 µM, first compound 0.3 µM) was 31.1%, the viability, T/C (second compound 0.316 µM, first compound 0.949 µM) was 24.9% and the viability, T/C (second compound 0.316 µM, first compound 3 µM) was 13.7%. The viability, T/C (second compound 1 µM, first compound 0.00949 µM) was 58.7%, the viability, T/C (second compound 1 µM, first compound 0.03 µM) was 48% and the viability, T/C (second compound 1 µM, first compound 0.0949 µM) was 38.4%. For the same compound, the viability, T/C (second compound 1 µM, first compound 0.3 µM) was 27.4%, the viability, T/C (second compound 1 µM, first compound 0.949 µM) was 18.9% and the viability, T/C (second compound 1 µM, first compound 3 µM) was 11.4%.
